Measured values taken from the NIST ThermoML archive (doi:10.1021/acs.jced.8b00591).

Experiment: xn = mol fraction of the nth substance listed
Conditions: 101.3 kPa, Liquid; for viscosity: Falling or rolling sphere viscometry; for mass density: Vibrating tube method

CCCC[n+]1ccn(C)c1.O=S(=O)([N-]S(=O)(=O)C(F)(F)F)C(F)(F)F + CCOC(=O)OCC
Conditions	mass density [kg/m3]	viscosity [mPa·s]
288.15 K, x1 = 0.1025	1086.84	2.12
288.15 K, x1 = 0.2198	1177.9	4.415
288.15 K, x1 = 0.3178	1236.57	7.583
288.15 K, x1 = 0.4211	1285.86	13.26
288.15 K, x1 = 0.5268	1327.09	20.12
288.15 K, x1 = 0.622	1358.33	28.36
288.15 K, x1 = 0.7193	1385.68	38.93
288.15 K, x1 = 0.8139	1408.25	50.88
288.15 K, x1 = 0.9088	1428.49	64.94
288.15 K, x1 = 1	1445.66	78.02
293.15 K, x1 = 0.1025	1081.45	1.928
293.15 K, x1 = 0.2198	1172.7	3.925
293.15 K, x1 = 0.3178	1231.47	6.526
293.15 K, x1 = 0.4211	1280.83	11.18
293.15 K, x1 = 0.5268	1322.13	17.25
293.15 K, x1 = 0.622	1353.42	23.42
293.15 K, x1 = 0.7193	1380.79	31.68
293.15 K, x1 = 0.8139	1403.38	40.79
293.15 K, x1 = 0.9088	1423.65	51.44
293.15 K, x1 = 1	1440.84	61.32
298.15 K, x1 = 0.1025	1076.05	1.764
298.15 K, x1 = 0.2198	1167.48	3.517
298.15 K, x1 = 0.3178	1226.35	5.739
298.15 K, x1 = 0.4211	1275.8	9.492
298.15 K, x1 = 0.5268	1317.16	14.77
298.15 K, x1 = 0.622	1348.49	19.58
298.15 K, x1 = 0.7193	1375.9	26.16
298.15 K, x1 = 0.8139	1398.52	33.25
298.15 K, x1 = 0.9088	1418.81	41.43
298.15 K, x1 = 1	1436.01	48.93
303.15 K, x1 = 0.1025	1070.65	1.618
303.15 K, x1 = 0.2198	1162.26	3.168
303.15 K, x1 = 0.3178	1221.23	5.085
303.15 K, x1 = 0.4211	1270.77	8.179
303.15 K, x1 = 0.5268	1312.2	12.6
303.15 K, x1 = 0.622	1343.58	17.03
303.15 K, x1 = 0.7193	1371.04	21.88
303.15 K, x1 = 0.8139	1393.68	27.57
303.15 K, x1 = 0.9088	1413.97	34.06
303.15 K, x1 = 1	1431.21	39.84
308.15 K, x1 = 0.1025	1065.23	1.492
308.15 K, x1 = 0.2198	1157.03	2.873
308.15 K, x1 = 0.3178	1216.12	4.539
308.15 K, x1 = 0.4211	1265.74	7.219
308.15 K, x1 = 0.5268	1307.25	10.76
308.15 K, x1 = 0.622	1338.67	14.69
308.15 K, x1 = 0.7193	1366.17	18.7
308.15 K, x1 = 0.8139	1388.84	23.2
308.15 K, x1 = 0.9088	1409.18	28.32
308.15 K, x1 = 1	1426.43	32.91
313.15 K, x1 = 0.1025	1059.8	1.385
313.15 K, x1 = 0.2198	1151.8	2.614
313.15 K, x1 = 0.3178	1210.99	3.977
313.15 K, x1 = 0.4211	1260.71	6.414
313.15 K, x1 = 0.5268	1302.3	9.287
313.15 K, x1 = 0.622	1333.78	12.63
313.15 K, x1 = 0.7193	1361.32	16.35
313.15 K, x1 = 0.8139	1384.01	19.64
313.15 K, x1 = 0.9088	1404.39	23.69
313.15 K, x1 = 1	1421.66	27.56
318.15 K, x1 = 0.1025	1054.35	1.286
318.15 K, x1 = 0.2198	1146.57	2.391
318.15 K, x1 = 0.3178	1205.88	3.591
318.15 K, x1 = 0.4211	1255.69	5.815
318.15 K, x1 = 0.5268	1297.36	8.069
318.15 K, x1 = 0.622	1328.9	10.92
318.15 K, x1 = 0.7193	1356.48	14.18
318.15 K, x1 = 0.8139	1379.19	16.89
318.15 K, x1 = 0.9088	1399.6	20.05
318.15 K, x1 = 1	1416.91	23.33
323.15 K, x1 = 0.1025	1048.88	1.198
323.15 K, x1 = 0.2198	1141.33	2.194
323.15 K, x1 = 0.3178	1200.77	3.259
323.15 K, x1 = 0.4211	1250.68	5.216
323.15 K, x1 = 0.5268	1292.44	7.105
323.15 K, x1 = 0.622	1324.02	9.492
323.15 K, x1 = 0.7193	1351.66	12.28
323.15 K, x1 = 0.8139	1374.39	14.6
323.15 K, x1 = 0.9088	1394.85	17.26
323.15 K, x1 = 1	1412.17	19.97
328.15 K, x1 = 0.1025	1043.4	1.117
328.15 K, x1 = 0.2198	1136.07	2.025
328.15 K, x1 = 0.3178	1195.65	2.978
328.15 K, x1 = 0.4211	1245.68	4.71
328.15 K, x1 = 0.5268	1287.5	6.138
328.15 K, x1 = 0.622	1319.16	8.288
328.15 K, x1 = 0.7193	1346.84	10.66
328.15 K, x1 = 0.8139	1369.58	12.69
328.15 K, x1 = 0.9088	1390.1	15
328.15 K, x1 = 1	1407.45	17.41

CCn1cc[n+](C)c1.O=S(=O)([N-]S(=O)(=O)C(F)(F)F)C(F)(F)F + CCOC(=O)OCC
Conditions	mass density [kg/m3]	viscosity [mPa·s]
288.15 K, x1 = 0.0991	1090.45	1.938
288.15 K, x1 = 0.1982	1179.3	3.368
288.15 K, x1 = 0.3024	1254.64	5.628
288.15 K, x1 = 0.3979	1312.21	8.533
288.15 K, x1 = 0.4982	1362.22	12.38
288.15 K, x1 = 0.5963	1404.91	17.23
288.15 K, x1 = 0.6992	1442.62	24.14
288.15 K, x1 = 0.7987	1475.05	31.13
288.15 K, x1 = 0.9	1503.75	39.07
288.15 K, x1 = 1	1528.55	49.41
293.15 K, x1 = 0.0991	1085.01	1.769
293.15 K, x1 = 0.1982	1173.95	3.032
293.15 K, x1 = 0.3024	1249.39	4.987
293.15 K, x1 = 0.3979	1306.99	7.45
293.15 K, x1 = 0.4982	1357.04	10.66
293.15 K, x1 = 0.5963	1399.78	14.65
293.15 K, x1 = 0.6992	1437.5	20.32
293.15 K, x1 = 0.7987	1469.95	25.96
293.15 K, x1 = 0.9	1498.66	32.29
293.15 K, x1 = 1	1523.47	40.36
298.15 K, x1 = 0.0991	1079.54	1.623
298.15 K, x1 = 0.1982	1168.6	2.746
298.15 K, x1 = 0.3024	1244.11	4.452
298.15 K, x1 = 0.3979	1301.78	6.552
298.15 K, x1 = 0.4982	1351.87	9.269
298.15 K, x1 = 0.5963	1394.64	12.59
298.15 K, x1 = 0.6992	1432.38	17.65
298.15 K, x1 = 0.7987	1464.86	21.91
298.15 K, x1 = 0.9	1493.58	27.04
298.15 K, x1 = 1	1518.39	33.52
303.15 K, x1 = 0.0991	1074.07	1.495
303.15 K, x1 = 0.1982	1163.23	2.498
303.15 K, x1 = 0.3024	1238.83	3.992
303.15 K, x1 = 0.3979	1296.56	5.819
303.15 K, x1 = 0.4982	1346.7	8.127
303.15 K, x1 = 0.5963	1389.51	10.93
303.15 K, x1 = 0.6992	1427.28	15.41
303.15 K, x1 = 0.7987	1459.77	18.79
303.15 K, x1 = 0.9	1488.51	22.93
303.15 K, x1 = 1	1513.34	28.35
308.15 K, x1 = 0.0991	1068.56	1.389
308.15 K, x1 = 0.1982	1157.86	2.288
308.15 K, x1 = 0.3024	1233.56	3.607
308.15 K, x1 = 0.3979	1291.36	5.196
308.15 K, x1 = 0.4982	1341.55	7.192
308.15 K, x1 = 0.5963	1384.4	9.572
308.15 K, x1 = 0.6992	1422.19	13.37
308.15 K, x1 = 0.7987	1454.71	16.59
308.15 K, x1 = 0.9	1483.46	19.65
308.15 K, x1 = 1	1508.3	24.15
313.15 K, x1 = 0.0991	1063.05	1.29
313.15 K, x1 = 0.1982	1152.48	2.102
313.15 K, x1 = 0.3024	1228.28	3.278
313.15 K, x1 = 0.3979	1286.15	4.672
313.15 K, x1 = 0.4982	1336.41	6.41
313.15 K, x1 = 0.5963	1379.3	8.445
313.15 K, x1 = 0.6992	1417.12	11.6
313.15 K, x1 = 0.7987	1449.66	14.56
313.15 K, x1 = 0.9	1478.42	17.36
313.15 K, x1 = 1	1503.28	20.76
318.15 K, x1 = 0.0991	1057.53	1.204
318.15 K, x1 = 0.1982	1147.11	1.939
318.15 K, x1 = 0.3024	1223.01	2.993
318.15 K, x1 = 0.3979	1280.95	4.223
318.15 K, x1 = 0.4982	1331.27	5.749
318.15 K, x1 = 0.5963	1374.2	7.525
318.15 K, x1 = 0.6992	1412.06	10.14
318.15 K, x1 = 0.7987	1444.62	12.72
318.15 K, x1 = 0.9	1473.41	15.35
318.15 K, x1 = 1	1498.27	17.9
323.15 K, x1 = 0.0991	1051.98	1.121
323.15 K, x1 = 0.1982	1141.72	1.794
323.15 K, x1 = 0.3024	1217.74	2.746
323.15 K, x1 = 0.3979	1275.76	3.839
323.15 K, x1 = 0.4982	1326.13	5.184
323.15 K, x1 = 0.5963	1369.11	6.739
323.15 K, x1 = 0.6992	1407.01	8.895
323.15 K, x1 = 0.7987	1439.6	11.15
323.15 K, x1 = 0.9	1468.41	13.53
323.15 K, x1 = 1	1493.28	15.93
328.15 K, x1 = 0.0991	1046.42	1.049
328.15 K, x1 = 0.1982	1136.32	1.667
328.15 K, x1 = 0.3024	1212.46	2.528
328.15 K, x1 = 0.3979	1270.58	3.509
328.15 K, x1 = 0.4982	1321.01	4.704
328.15 K, x1 = 0.5963	1364.03	6.075
328.15 K, x1 = 0.6992	1401.98	7.875
328.15 K, x1 = 0.7987	1434.59	9.813
328.15 K, x1 = 0.9	1463.42	11.93
328.15 K, x1 = 1	1488.31	14.26
